Assay results from patent US20070167509A1, “Use of phenserine and analogs to treat behavioral problems and improve trainability” (priority 2005, published 2007).

Experiments:
Format in all cases: in vivo
[1] = test system: aged dogs; test: CP-118,954 study of DNMP performance, counter-balanced within-subject design
[2] = test system: senior beagle dogs; test: variable-delay DNMP under scopolamine / saline challenge; conditions: scopolamine 15 μg/kg SC, 20-s (p=0.038) and 80-s (p=0.082) delays
Experimental: Following relearning of the DNMP, dogs were tested on a variable-delay paradigm in which delays of 20 and 80 s were used. The delays occurred equally among the trials in a daily test session. We have previously shown that the 15-μg/kg dose selectively impairs DNMP performance (Araujo et al., 2004a). The dogs were first divided into two groups, one that was administered phenserine and the other received a placebo control. All subjects were given a 5-day stabilization period and then tested under scopolamine (15 μg/kg, SC) and saline (SC), administered 45 min prior to testing, over two test days separated by a treatment washout day. One day following the second treatment day, animals were removed from phenserine or placebo treatments and re-tested on the stabilization days and under scopolamine and saline treatment as indicated above.

[3] = test system: senior beagle dogs; test: relearning of the delayed-non-matching-to-position task (DNMP); conditions: N=4
Experimental: Five male and two female senior beagle dogs (M+S.D.=14.60+1.46 years) served as subjects (Table 1). Dogs were divided into two groups matched on their most recent DNMP performance; the first group (N=4) was administered phenserine (0.5 mg/kg) via capsule in a meatball and the second group (N=3) was administered a placebo meatball. Dogs received a five-day wash-in period prior to study initiation and were administered their respective treatments 1-hour prior to DNMP testing. Dogs were trained initially on the DNMP using a 5-s delay until a 2-stage criterion was passed. The first stage required animals to achieve a score of 11/12 on one day, a score of 10/12 over two consecutive days, or a score of 29/36 over three consecutive days. Subsequently, the dogs were required to achieve a score of 26/36 over the following three days to pass the second stage.

[4] = test system: middle-aged beagle dogs; test: delayed-non-matching-to-sample task (DNMS), recognition memory; conditions: 0.5 mg/kg dose
Experimental: The present study assessed the effects of a 0.5 mg/kg dose of phenserine in middle-aged dogs tested on a recognition memory task.
Six middle-aged beagle dogs (4 female and 2 male) served as subjects. Dogs were divided equally into 2 groups matched for performance on their most recent 10 sessions on the delayed-non-matching-to-sample task (DNMS; (Callahan et al., 2000). One group was administered phenserine (0.5 mg/kg) via capsule in a meatball and the second group served as control. Animals were tested one-hour after drug administration and were tested on a total of 20 test sessions.
To examine the effects of phenserine on DNMS performance, mean performance over groups of five test sessions was analyzed (see e.g., FIG. 1).

O=C1Cc2cc3c(CCC4CCN(Cc5ccccc5)CC4)noc3cc2N1 [CP-118,954]
DNMP performance [1]: no significant improvement

CN1[C@@H]2C[C@@H](OC(=O)[C@H](CO)c3ccccc3)C[C@H]1[C@@H]1O[C@@H]12 [scopolamine]
DNMP performance of the placebo group after treatment with scopolamine [2]: performance deficits

CN1CC[C@@]2(C)c3cc(OC(=O)Nc4ccccc4)ccc3N(C)[C@@H]12 [phenserine, (−)-phenylcarbamoyleseroline]
mean errors to relearn the DNMP (M+SEM) ([3]; 0.5 mg/kg via capsule 1 hour prior to testing, 5-s delay, placebo 14.33+6.98): 5.25+0.85 errors
fewer errors compared to the most previous relearning rates (M+SEM) ([3]; 0.5 mg/kg, placebo group showed more errors (6.33+9.53)): 5.00+4.51 errors
adverse effects [4]: No obvious adverse effects
